Converted amounts (≈) assume the structure as drawn.
Legend:
[1] = system: clinical S. aureus strain; experiment: CLSI overnight method MIC; settings: Staphylococcus aureus
[2] = system: S. aureus (QC strain 29213); experiment: standard CLSI reference method MIC (fast-AST MICs stated to be similar); format: cell-based, Staphylococcus aureus
Method: Microorganism detection is then performed visually.
S. aureus (QC strain 29213) was cultured under standard sterile conditions in Mueller-Hinton (MH) broth overnight at 37° C. with shaking.
The microplates, each well containing 100 μL, were inoculated with the prepared antimicrobial dilutions and incubated at 37° C. for 3 hours, 45 minutes for determination using the present invention (the “fast-AST” technique). The “fast-AST” microplates were removed from the shaking incubator after 3 hours, 45 minutes and centrifuged for 2.5 minutes at 2500×g in order to pellet. The MH broth was then aspirated and 100 μL of 25 mM PBS was added to each well of both microplates. Then, 10 µL of the chemical moiety (here, Europium-Cryptate formulation) was added to each well (to 20 ng/well) and 10 μL of 0.005% Glutaraldehyde (as the signaling agent) was added to each well. The two microplates were then shaken at 300 rpm for 30 minutes. After, both plates were centrifuged for 2.5 minutes at 2500×g to pellet. The solution was aspirated and a wash of 200 μL PBS-tween was added to each well, followed by a centrifugation to pellet. After aspiration of solution, a second identical wash of 200 μL PBS-tween occurred, followed by a final centrifugation to pellet. 200 μL PBS-tween was added to each well. The plate was then read using time resolved fluorescence on a BioTek H1 plate reader.

[3] = system: clinical resistant E. coli ("Clinical"); experiment: fast-AST with Europium-Cryptate/glutaraldehyde, clinical strain; format: cell-based, Escherichia coli; settings: 3 hours 45 minutes incubation, FIG. 17, FIG. 21
Method: (§1) Both Escherichia coli (QC strain, ATCC 25922) and clinical resistant E. coli (“Clinical”) were cultured under standard sterile conditions in Mueller-Hinton (MH) broth overnight at 37° C. with shaking. The E. coli concentration from the overnight culture was then set to 5×10^5 CFU/ml using the McFarland standard technique for optical density readings at 600 nm. Concurrently, two sterile 96-well microplates were prepared with serial dilutions of a specified antimicrobial (see below) and a no-antimicrobial (saline) control, all in MH broth. The microplates, each well containing 200 μL, were inoculated with the prepared antimicrobial dilutions and incubated at 37° C. for 3 hours, 45 minutes for determination using the present invention (the “fast-AST” technique). The “fast-AST” microplates were removed from the shaking incubator after 3 hours, 45 minutes and centrifuged for 2.5 minutes at 2500 g in order to pellet. The MH broth was then aspirated and 100 μL of water was added to each well of both microplates. Then, 10 μL of the chemical moiety (here, Europium-Cryptate formulation) was added to each well (to 20 ng/well) and 10 μL of 5% Glutaraldehyde (as the signaling agent) was added to each well. The two microplates were then shaken at 300 rpm for 30 minutes. […] The plate was then read using time resolved fluorescence on a BioTek H1 plate reader.

[4] = system: Escherichia coli (ATCC 11303); experiment: fluorescent nanoparticle signaling agent assay (free signaling agents in filtrate); format: cell-based
Method: (§2) Both Escherichia coli (ATCC 11303) and ampicillin-resistant E. coli (ATCC 39936) were cultured under standard sterile conditions in LB broth at 37° C. Concentrations were determined by measuring absorbance at 600 nm (McFarland), and a concentration of 5×10^5 CFU/ml was set by dilution. Ampicillin was then weighed into sterile water and added in appropriate concentrations to sterile 3 mL microfuge tubes. Bacteria and nanoparticles at a concentration of 8×10^8 nanoparticles/ml were both added to these ampicillin-coated sterile microfuge tubes. The tubes were then capped and placed at 37° C. for 1.5 hours with continuous shaking, after which they were opened and each was passed through a 0.2 μm filter. Next, 100 μL of each filtrate was added to a well of a 96-well plate and 150 μL of a development solution (5% tetramethylammonium hydroxide in ethanol) was added to each well. After 5 minutes the plate was read at 490 nm excitation/530 nm emission in a SpectraMax M2 microplate reader (Molecular Devices).
(§3) An assay for free signaling agents, which are not associated with intact bacteria, was performed after intact bacteria were removed by filtration through a 0.2 μm filter.

[5] = system: ampicillin-resistant E. coli (ATCC 39936); experiment: as above; format: cell-based, Escherichia coli; settings: 100 μg/ml ampicillin, 1.5 hours, 0.2 μm filtrate; FIG. 41
Method: as §2, §3

[6] = system: Escherichia coli (QC strain, ATCC 25922) and clinical resistant E. coli ("Clinical"); experiment: fast-AST with Europium-Cryptate/glutaraldehyde, QC strain compared with clinical strain; format: cell-based; settings: 3 hours 45 minutes incubation, FIG. 16 to FIG. 23
Method: as §1

[7] = system: Pseudomonas aeruginosa (ATCC strain 27853); experiment: fast-AST MIC determination (HRP-conjugated anti-P. aeruginosa antibody signaling agent); format: cell-based; settings: ATCC27853, 3.5 hours incubation, susceptible strain, FIG. 6, FIG. 7
Method: (§4) Similarly, a culture of Pseudomonas aeruginosa (ATCC strain 27853) was grown using MH broth overnight at 37° C. with vigorous shaking. […] The data shown in FIG. 6 depicts from the 5 minute point after the start of incubation with detection solution. […] The MIC determined by both techniques is the same: 4 μg/ml.
(§5) The MIC for the resistant P. aeruginosa strain, ATCC BAA-2108, was determined similarly. The same 96-well microplate was used for both strains, with 48 wells dedicated to each strain.

[8] = system: Pseudomonas aeruginosa (ATCC strain 27853); experiment: standard overnight growth, OD600 control MIC determination; format: cell-based; settings: ATCC27853, overnight (>12 hours) incubation, FIG. 6
Method: as §4

[9] = system: resistant P. aeruginosa strain, ATCC BAA-2108; experiment: fast-AST MIC determination, resistant strain; format: cell-based; settings: Pseudomonas aeruginosa, ATCCBAA2108, FIG. 7
Method: as §4, §5

[10] = standard CLSI reference method, fast-AST MICs similar, FIG. 24 to FIG. 26

CN[C@H](CC(C)C)C(=O)N[C@H]1C(=O)N[C@@H](CC(N)=O)C(=O)N[C@H]2C(=O)N[C@H]3C(=O)N[C@H](C(=O)N[C@H](C(=O)O)c4cc(O)cc(O)c4-c4cc3ccc4O)[C@H](O)c3ccc(c(Cl)c3)Oc3cc2cc(c3O[C@@H]2O[C@H](CO)[C@@H](O)[C@H](O)[C@H]2O[C@H]2C[C@](C)(N)[C@H](O)[C@H](C)O2)Oc2ccc(cc2Cl)[C@H]1O [Vancomycin]
MIC [1]: 8 µg/mL (≈ 5.52 µM)
MIC ([2]; Staphylococcus aureus): 0.5 to 2 µg/mL (≈ 0.345 to 1.38 µM)

CC1(C)S[C@@H]2[C@H](NC(=O)[C@H](N)c3ccccc3)C(=O)N2[C@H]1C(=O)O [ampicillin]
susceptibility call of the clinical strain [3]: resistant
fluorescent signal of free signaling agent ([4]; 100 μg/ml ampicillin, 1.5 hours, 0.2 μm filtrate, FIG. 41): significant increase in fluorescence
MIC ([4]; Escherichia coli, ATCC11303, varying ampicillin concentrations, fluorescent nanoparticle assay, FIG. 42): ~15 µg/mL (≈ 42.9 µM)
fluorescent signal of free signaling agent [5]: low fluorescent signals
MICs of QC strain compared with clinical resistant strain [6]: dissimilar MICs

CC(C)(O/N=C(\C(=O)N[C@@H]1C(=O)N2C(C(=O)[O-])=C(C[n+]3ccccc3)CS[C@H]12)c1csc(N)n1)C(=O)O [ceftazidime]
MIC [7]: 4 µg/mL (≈ 7.32 µM)
MIC [8]: 4 µg/mL (≈ 7.32 µM)

C[C@@H](O)[C@H]1C(=O)N2C(C(=O)O)=C(SCCN=CN)C[C@H]12 [imipenem]
MIC [9]: 32 µg/mL (≈ 107 µM)
MIC [7]: 2 µg/mL (≈ 6.68 µM)

Penicillin
MIC [2, 10]: 0.25 to 2 µg/mL

Teicoplanin
MIC [2, 10]: 0.25 to 1 µg/mL

From patent US9834808B2, “Methods for rapid antibiotic susceptibility testing” (SeLux Diagnostics, Inc., priority 2016, dated 2017)
